# Assay results from patent publication US6001815A, “Depsipeptides containing N-substituted glycine residue” (Nisshin Flour Milling Co., Ltd., priority 1997, dated 1999).
# Where a SMILES comes first, the peptide text is derived from it. [ ]: non-standard residue; d: D form. The star is where a group is joined. Fmoc = O=C(OCC1c2ccccc2-c2ccccc21)*; X1 = CCCCCCCCCCCC(CC(=O)O)O*; NBuGly = CCCCNCC(=O)O
# System: apolipoprotein E production in Hep G2 cells
# Test: Productivity of apolipoprotein E in Hep G2 cells, determined by enzyme immunoassay
# Assay type: cell-based, human
# Settings: Hep G2 culture supernatant, methanol control defined as 100
# Protocol: It will be shown below that the depsipeptides of the invention may influence upon the productivity of apolipoprotein E in Hep G2 cells, together with the test procedure as used.
# First, Hep G2 cells of 1×10^5 cells were suspended in Dulbecco's modified Eagle medium (manufactured by Nissui Seiyaku Co., Ltd.; hereinafter referred to as "D-MEM medium") containing 10% fetal bovine serum and 1 ml each of the suspension was poured into a 24-well tissue culture plate. The cells were cultivated at 37° C. under atmosphere of a mixed gas composed of 5% carbon dioxide and 95% air. […]
# It was again washed three times with 300 μl of PBS, 50 μl of the above sample solution (the medium for Hep G2 cells) was added and the mixture was allowed to stand at room temperature for 2 hours. […] The reaction was quenched by the addition of 100 μl of 2N sulfuric acid and absorbance was measured at 490 nm using absorbance at 650 nm as a control. An amount of apolipoprotein E in the present depsipeptide was determined upon the calibration curve drawn up when a commercially available apolipoprotein E (Chemicon Co., Ltd., U.S.A.) was used as a standard.
# In the Test Example, the same procedure as described above was carried out except that methanol alone was added instead of the methanolic solution of the depsipeptide of this invention and an apolipoprotein E amount was measured as a control. […]
structure (smiles),measurement,setting,value
CCCCCCCCCCCC(CC(=O)O)OC(=O)CN(CCCC)C(=O)CN(CCCC)C(=O)[C@H](CC(=O)O)NC(=O)[C@@H](NC(=O)OCC1c2ccccc2-c2ccccc21)C(C)C (some centres unmarked) [Compound 2] (Fmoc-VD[NBuGly][NBuGly]-X1),Relative amount of apolipoprotein E (%),Conc. 1 μM,256%
same,Relative amount of apolipoprotein E (%),Conc. 5 μM,389%
